Measurements: PMC12567096, “An Efficacy- and In Vivo Exposure-Oriented Integrated Study to Investigate the Effective Components of Qishen Granule” (Pharmaceuticals, 2025)

Columns and labels:
OGD/R-induced H9c2 cells = test: Protective effect on OGD/R-induced H9c2 cells (CCK-8 cell viability); format: cell-based, rat; details: for H9c2 cell survival after OGD/R (in words): 1, 10, 25, 50 and 100 μM prior to OGD/R, vs model group; for Protective effects on OGD/R-induced H9c2 cells (in words): at 50 and 100 μM; for EC50: protective effect against OGD/R injury, H9c2 cell viability
Protocol: (§1) Rat myocardial H9c2 cells (purchased from China Infrastructure of Cell Line Resources, Institute of Basic Medical Sciences, Chinese Academy of Medical Sciences) were cultured in DMEM supplemented with 10% fetal bovine serum (FBS), Penicillin (100 U/mL), and Streptomycin (100 μg/mL) at 37 °C under a humidified atmosphere of 5% CO2 and 95% air. For OGD/R treatment, H9c2 cells were cultured in glucose-free DMEM under hypoxic conditions (95%N2 + 5%CO2) for 4 h at 37 °C followed by complete medium under normal conditions with air (95%) and CO2 (5%) for 2 h. A control group was maintained under normal culture conditions (with glucose-containing DMEM and 5% CO2) without undergoing OGD/R treatment. CCK8 was used to assess cell viability. After treatment, H9c2 cells were seeded in 96-well plates, with each well supplemented with 10 μL of CCK-8 solution and then incubated for 1 h. Finally, the absorbance at 450 nm was detected by a microplate reader (Model […] 200 PRO, TECAN, Grodig, Austria).
When evaluating the cytotoxicities of the absorbed compounds, the H9c2 cells were seeded in 96-well plates at a density of 1 × 10^4 cells/well; when cells reached 80% confluence, they were treated with 25 and 50 μM of the 24 analytes to screen the non-toxic concentration ranges. Afterward, the protective effects were verified by assessing the cell viability when treating with different concentrations (1, 10, 25, 50, and 100 μM) of the analytes prior to OGD/R treatment.

H9c2 cells = test: Cytotoxicity on H9c2 cells (CCK-8); format: cell-based, rat; details: for Inhibition rate / inhibition at 25 µM / inhibition at 50 µM / inhibition at 100 µM: H9c2 cells, n=3; for inhibition at 25 µM / inhibition at 50 µM / inhibition at 100 µM: Rattus norvegicus, read-out: Inhibition rate; for Effect on H9c2 cell viability / cytotoxicity (in words): CCK-8, compared to the control group
Protocol: as §1
When evaluating the cytotoxicities of the absorbed compounds, the H9c2 cells were seeded in 96-well plates at a density of 1 × 10^4 cells/well; when cells reached 80% confluence, […] Afterward, the protective effects were verified by assessing the cell viability when treating with different concentrations (1, 10, 25, 50, and 100 μM) of the analytes prior to OGD/R treatment.

[1] = Pharmacokinetic study in rats after oral administration of QSG; details: for AUCi: exposure (AUC0→∞) of the component in rats after oral QSG, as used for ECI; for Oral relative bioavailability: exposure level (AUC0→∞) compared with the dosage of each compound in QSG; for Absorption efficiency / bioavailability (in words): from Table S12, rats; for Shape of the plasma concentration–time curve (in words): rats; for AUC(0-inf): AUC0→∞
Protocol: Ion source parameters were set as follows: temperatures of drying gas and sheath gas were 300 °C and 300 °C, flow rates of drying gas and sheath gas were 7 L/min and 11 L/min, the nebulizer was set at 35 psig, capillary voltage was 3500 V (−), and nozzle voltage was 2000 V (−). […] Chromatographic separations were conducted on a ZORBAX Eclipse Plus C18 column (3.0 × 50 mm, 1.8 μm, Agilent Technologies, California, USA). The mobile phase was composed of 0.1% aqueous FA (A, (v/v)) and 0.1% formic acid methanol (B), the flow rate was set at 0.5 mL/min, and the column oven was maintained at 40 °C.
Protein precipitation was carried out for each time point for plasma samples, calibration samples, or QC samples by introducing four volumes of acetonitrile containing 400 ng/mL of icariin. Then, 10 μL 10% aqueous ascorbic acid (v/v) was spiked into each sample to prevent the oxidation of phenolic compounds. […] An aliquot (450 μL) of the supernatant was transferred and dried under nitrogen vacuum.
The pharmacokinetic parameters were calculated by DAS software (version 2.0) for a non-compartmental analysis.

[2] = Concentrations of 24 analytes in QSG treated plasma (Table S5); details: for Concentration: QSG treated plasma, n = 5; for concentration at 0.08 h / concentration at 0.17 h / concentration at 0.5 h / concentration at 1 h / concentration at 2 h / concentration at 4 h / concentration at 8 h / concentration at 12 h: Sprague Dawley, rat, plasma, oral, 7 g/kg
[3] = rat plasma, single oral 7 g/kg QSG, n = 6
[4] = Sprague Dawley, rat, plasma, po, 7 g/kg
[5] = Sprague Dawley, rat, plasma, po, 7 g/kg, rat plasma, single oral 7 g/kg QSG, n = 6

## CC(C)(O)[C@@H]1CC[C@](C)([C@H]2[C@@H](O)C[C@@]3(C)[C@@H]4C[C@H](O[C@@H]5O[C@H](CO)[C@@H](O)[C@H](O)[C@H]5O)[C@H]5C(C)(C)[C@@H](O[C@@H]6OC[C@@H](O)[C@H](O)[C@H]6O)CC[C@@]56C[C@@]46CC[C@]23C)O1 [Astragaloside IV]
OGD/R-induced H9c2 cells
  H9c2 cell survival after OGD/R (in words): significantly improve H9c2 cell survival rates
  Protective effects on OGD/R-induced H9c2 cells (in words): significant protective effects
H9c2 cells; 25 μM
  Inhibition rate: -6.7 ± 7.1%
H9c2 cells; 50 μM
  Inhibition rate: 7.0 ± 2.1%
H9c2 cells; 100 μM
  Inhibition rate: 15.0 ± 2.3%
[1]; Table S12, rats, oral QSG
  AUC0→∞: 144.9 ng·h/mL
[1]
  AUCi: 144.9
  Oral relative bioavailability: 0.107%
[1]; oral QSG
  Absorption efficiency / bioavailability (in words): relatively higher absorption efficiency
  Shape of the plasma concentration–time curve (in words): Double peaks
[1]; [3]
  AUC0→t: 55.94 ± 26.16 ng·h/mL
  AUC0→∞: 144.9 ± 101.2 ng·h/mL
  Cmax: 12.06 ± 2.010 ng/mL
  MRT: 6.104 ± 3.716 h
  T1/2: 14.87 ± 9.060 h
  Tmax: 0.250 ± 0.0920 h
[2]; 0.17 h
  Concentration: 7.10 ± 5.941 ng/mL
[2]; 0.5 h
  Concentration: 8.655 ± 2.757 ng/mL
[2]; 1 h
  Concentration: 3.017 ± 3.507 ng/mL
[2]; 2 h
  Concentration: 3.783 ± 2.015 ng/mL
[2]; 4 h
  Concentration: 0.710 ± 1.991 ng/mL
[2]; 8 h
  Concentration: 1.337 ± 1.728 ng/mL
[2]; 12 h
  Concentration: 2.200 ± 2.015 ng/mL

## O=C(/C=C/c1ccc(O)c(O)c1)O[C@@H]1C[C@](O)(C(=O)O)C[C@@H](O)[C@H]1O [Chlorogenic acid]
OGD/R-induced H9c2 cells
  H9c2 cell survival after OGD/R (in words): significantly improve H9c2 cell survival rates
OGD/R-induced H9c2 cells; Rattus norvegicus
  EC50: 8.6 µM
H9c2 cells; 25 μM
  inhibition at 25 µM: -1.6 ± 4.9%
H9c2 cells; 50 μM
  inhibition at 50 µM: 12 ± 1.7%
H9c2 cells; 100 μM
  inhibition at 100 µM: 15 ± 4.1%
[1]; [4]
  AUC: 1420 ng·h/mL
  MRT: 7.18 ± 0.978 h
  Tmax: 0.563 ± 0.125 h
  half-life: 9.22 ± 3.27 h
[1]; [5]
  AUC(0-inf): 1420 ± 243 ng·h/mL
[1]; [3]
  AUC0→t: 1278 ± 171.4 ng·h/mL
  Cmax: 394.1 ± 6.271 ng/mL
[2]
  concentration at 0.08 h: 66.2 ± 20.1 ng/mL
  concentration at 0.17 h: 99.06 ± 0.162 ng/mL
  concentration at 0.5 h: 395 ± 7.1 ng/mL
  concentration at 1 h: 170 ± 35.7 ng/mL
  concentration at 2 h: 77.2 ± 7.26 ng/mL
  concentration at 4 h: 68.1 ± 21 ng/mL
  concentration at 8 h: 51.4 ± 5.49 ng/mL
  concentration at 12 h: 39.1 ± 14.9 ng/mL

## O=C(/C=C/c1ccc(O)c(O)c1)O[C@H]1[C@H](O)C[C@](O)(C(=O)O)C[C@H]1O [Cryptochlorogenic acid]
OGD/R-induced H9c2 cells
  H9c2 cell survival after OGD/R (in words): significantly improve H9c2 cell survival rates
  EC50: 1.13 µM
H9c2 cells; 25 μM
  Inhibition rate: -16.2 ± 4.2%
H9c2 cells; 50 μM
  Inhibition rate: -3.4 ± 0.2%
H9c2 cells; 100 μM
  Inhibition rate: 5.2 ± 0.4%
H9c2 cells
  Effect on H9c2 cell viability / cytotoxicity (in words): significantly enhanced cell viabilities
[1]; Table S12, rats, oral QSG
  AUC0→∞: 576.2 ng·h/mL
[1]
  AUCi: 576.2
  Oral relative bioavailability: 0.026%
[1]; oral QSG
  Absorption efficiency / bioavailability (in words): relatively higher absorption rates
[1]; [3]
  AUC0→t: 532.2 ± 41.45 ng·h/mL
  AUC0→∞: 576.2 ± 58.15 ng·h/mL
  Cmax: 184.1 ± 57.43 ng/mL
  MRT: 8.933 ± 0.5290 h
  T1/2: 10.84 ± 2.625 h
  Tmax: 0.364 ± 0.076 h
[2]; 0.08 h
  Concentration: 17.855 ± 11.504 ng/mL
[2]; 0.17 h
  Concentration: 95.627 ± 23.461 ng/mL
[2]; 0.5 h
  Concentration: 135.955 ± 20.918 ng/mL
[2]; 1 h
  Concentration: 54.572 ± 22.599 ng/mL
[2]; 2 h
  Concentration: 29.505 ± 18.460 ng/mL
[2]; 4 h
  Concentration: 18.424 ± 6.281 ng/mL
[2]; 8 h
  Concentration: 21.857 ± 6.099 ng/mL
[2]; 12 h
  Concentration: 12.189 ± 3.932 ng/mL

## COc1ccc(-c2coc3cc(O)ccc3c2=O)cc1 [Formononetin]
OGD/R-induced H9c2 cells
  H9c2 cell survival after OGD/R (in words): significantly improve H9c2 cell survival rates
  Protective effects on OGD/R-induced H9c2 cells (in words): significant protective effects
OGD/R-induced H9c2 cells; Rattus norvegicus
  EC50: 65 µM
H9c2 cells; 25 μM
  inhibition at 25 µM: 10.7 ± 4.5%
H9c2 cells; 50 μM
  inhibition at 50 µM: 10.8 ± 5.2%
H9c2 cells; 100 μM
  inhibition at 100 µM: 13.5 ± 2.2%
[1]; [4]
  AUC: 27.7 ng·h/mL
  AUC(0-t): 18.5 ± 5.01 ng·h/mL
  Cmax: 4.31 ± 0.952 ng/mL
  MRT: 6.79 ± 4.77 h
  Tmax: 0.516 ± 0.15 h
  half-life: 10.9 ± 9.19 h
[1]; Sprague Dawley, rat, plasma, po, 7 g/kg, Table S12, rats, oral QSG
  AUC(0-inf): 27.7 ng·h/mL
[1]; [5]
  AUC(0-inf): 27.7 ± 12.2 ng·h/mL
[1]
  Oral relative bioavailability: 0.033%
[2]
  concentration at 0.08 h: 0.74 ± 0.932 ng/mL
  concentration at 0.17 h: 2.81 ± 1.24 ng/mL
  concentration at 0.5 h: 4.23 ± 0.976 ng/mL
  concentration at 1 h: 2.77 ± 1.06 ng/mL
  concentration at 2 h: 1.45 ± 0.436 ng/mL
  concentration at 4 h: 1.03 ± 0.395 ng/mL
  concentration at 8 h: 0.656 ± 0.349 ng/mL
  concentration at 12 h: 0.289 ± 0.213 ng/mL

## O=C(/C=C/c1ccc(O)c(O)c1)O[C@H]1[C@H](O)C[C@](O)(C(=O)O)C[C@H]1OC(=O)/C=C/c1ccc(O)c(O)c1 [Isochlorogenic acid C]
OGD/R-induced H9c2 cells
  H9c2 cell survival after OGD/R (in words): significantly improve H9c2 cell survival rates
  EC50: 1.09 µM
H9c2 cells; 25 μM
  Inhibition rate: -11.8 ± 6.3%
H9c2 cells; 50 μM
  Inhibition rate: -16.6 ± 1.3%
H9c2 cells; 100 μM
  Inhibition rate: -6.3 ± 2.3%
H9c2 cells
  Effect on H9c2 cell viability / cytotoxicity (in words): significantly enhanced cell viabilities
[1]; Table S12, rats, oral QSG
  AUC0→∞: 170.5 ng·h/mL
[1]
  AUCi: 170.5
  Oral relative bioavailability: 0.008%
[1]; oral QSG
  Absorption efficiency / bioavailability (in words): less readily absorbed
  Shape of the plasma concentration–time curve (in words): Double peaks
[1]; [3]
  AUC0→t: 116.3 ± 39.63 ng·h/mL
  AUC0→∞: 170.5 ± 80.02 ng·h/mL
  Cmax: 33.95 ± 8.980 ng/mL
  MRT: 8.361 ± 4.800 h
  T1/2: 16.43 ± 14.14 h
  Tmax: 0.334 ± 0.165 h
[2]; 0.08 h
  Concentration: 12.829 ± 7.386 ng/mL
[2]; 0.17 h
  Concentration: 23.904 ± 9.523 ng/mL
[2]; 0.5 h
  Concentration: 18.491 ± 8.090 ng/mL
[2]; 1 h
  Concentration: 11.005 ± 7.334 ng/mL
[2]; 2 h
  Concentration: 7.777 ± 3.293 ng/mL
[2]; 4 h
  Concentration: 2.637 ± 2.154 ng/mL
[2]; 8 h
  Concentration: 7.703 ± 2.363 ng/mL
[2]; 12 h
  Concentration: 1.848 ± 1.625 ng/mL

## O=C(/C=C/c1ccc(O)c(O)c1)O[C@@H]1C[C@@](O)(C(=O)O)C[C@@H](O)[C@@H]1O [Neochlorogenic acid]
OGD/R-induced H9c2 cells
  H9c2 cell survival after OGD/R (in words): significantly improve H9c2 cell survival rates
H9c2 cells; 25 μM
  Inhibition rate: -12.8 ± 1.3%
H9c2 cells; 50 μM
  Inhibition rate: 3.8 ± 2.2%
H9c2 cells; 100 μM
  Inhibition rate: 5.7 ± 2.3%
[1]; Table S12, rats, oral QSG
  AUC0→∞: 1418 ng·h/mL
[1]; [3]
  AUC0→t: 167.1 ± 68.93 ng·h/mL
  Cmax: 68.12 ± 4.044 ng/mL
  MRT: 6.104 ± 2.911 h
  Tmax: 0.398 ± 0.093 h
